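Grown in 96-well plates, cells were treated for 48 hours with each compound at five concentrations. Insufficient inhibition: endpoint recorded as highest concentration tested. At the TGI there is no net growth.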
Experiments:
Test in all cases: inhibition of tumour cell growth, NCI panel, 48 h
[1] = system: M14 melanoma
[2] = system: OVCAR-5 ovarian
[3] = system: SNB-19 CNS
[4] = system: HT29 colon
[5] = system: SK-MEL-28 melanoma
[6] = system: HOP-62 NSCLC
[7] = system: NCI/ADR-RES ovarian
[8] = system: NCI-H522 lung
[9] = system: OVCAR-8 ovarian
[10] = system: SR leukemia
[11] = system: CAKI-1 renal
[12] = system: SNB-75 CNS
[13] = system: 786-0 renal
[14] = system: SW-620 colon
[15] = system: A549 NSCLC
[16] = system: NCI-H226 lung
[17] = system: RPMI-8226 leukemia
[18] = system: ACHN renal
[19] = system: SK-MEL-5 melanoma
[20] = system: MDA-MB-231 breast
[21] = system: OVCAR-4 ovarian
[22] = system: PC-3 prostate
[23] = system: K-562 leukemia
[24] = system: EKVX NSCLC
[25] = system: MALME-3M melanoma
[26] = system: MOLT-4 leukemia
[27] = system: CCRF-CEM leukemia
[28] = system: DU-145 prostate
[29] = system: SF-539 CNS
[30] = system: T-47D breast
[31] = system: KM12 colon
[32] = system: NCI-H460 lung
[33] = system: UO-31 renal
[34] = system: SF-268 CNS
[35] = system: RXF 393 renal
[36] = system: NCI-H23 lung
[37] = system: MCF7 breast
[38] = system: UACC-62 melanoma
[39] = system: HS 578T breast
[40] = system: U251 CNS
[41] = system: TK-10 renal
[42] = system: HCC-2998 colon
[43] = system: SK-MEL-2 melanoma
[44] = system: SN12C renal
[45] = system: COLO 205 colon
[46] = system: MDA-N
[47] = system: UACC-257 melanoma
[48] = system: BT-549 breast
[49] = system: SK-OV-3 ovarian
[50] = system: HCT-116 colon
[51] = system: A498 renal
[52] = system: OVCAR-3 ovarian
[53] = system: LOX IMVI melanoma
[54] = system: IGROV1 ovarian
[55] = system: SF-295 CNS
[56] = system: HOP-92 NSCLC
[57] = system: MDA-MB-435
[58] = system: HCT-15 colon
[59] = system: HL-60(TB) leukemia

## N#CC1CCCC2SC(F)(F)C(F)(F)C12 (configuration not stated)
[1]
  TGI: > 100 µM
[2]
  TGI: > 100 µM
[3]
  TGI: > 100 µM
[4]
  TGI: > 100 µM
[5]
  TGI: > 100 µM
[6]
  TGI: > 100 µM
[7]
  TGI: > 100 µM
[8]
  TGI: > 100 µM
[9]
  TGI: > 100 µM
[10]
  TGI: 72.7 µM
[11]
  TGI: > 100 µM
[12]
  TGI: > 100 µM
[13]
  TGI: > 100 µM
[14]
  TGI: > 100 µM
[15]
  TGI: > 100 µM
[16]
  TGI: > 100 µM
[17]
  TGI: > 100 µM
[18]
  TGI: > 100 µM
[19]
  TGI: > 100 µM
[20]
  TGI: > 100 µM
[21]
  TGI: > 100 µM
[22]
  TGI: > 100 µM
[23]
  TGI: > 78.3 µM
[24]
  TGI: > 100 µM
[25]
  TGI: > 100 µM
[26]
  TGI: 99.3 µM
[27]
  TGI: > 66.7 µM
[28]
  TGI: > 100 µM
[29]
  TGI: > 100 µM
[30]
  TGI: > 100 µM
[31]
  TGI: > 100 µM
[32]
  TGI: > 100 µM
[33]
  TGI: > 100 µM
[34]
  TGI: > 100 µM
[35]
  TGI: > 100 µM
[36]
  TGI: > 100 µM
[37]
  TGI: > 100 µM
[38]
  TGI: > 100 µM
[39]
  TGI: > 100 µM
[40]
  TGI: > 100 µM
[41]
  TGI: > 100 µM
[42]
  TGI: > 100 µM
[43]
  TGI: > 100 µM
[44]
  TGI: > 100 µM
[45]
  TGI: > 100 µM
[46]
  TGI: > 100 µM
[47]
  TGI: > 100 µM
[48]
  TGI: > 100 µM
[49]
  TGI: > 100 µM
[50]
  TGI: > 100 µM
[51]
  TGI: > 100 µM
[52]
  TGI: > 100 µM
[53]
  TGI: > 100 µM
[54]
  TGI: > 100 µM
[55]
  TGI: > 100 µM
[56]
  TGI: > 100 µM
[57]
  TGI: > 100 µM
[58]
  TGI: > 100 µM
[59]
  TGI: 54.9 µM

## O=C(Nc1nnc(-c2ccc(Cl)cc2)o1)C(SC(=S)N1CCCCC1)c1ccccc1 (configuration not stated)
[1]
  TGI: 32.1 µM
[2]
  TGI: 64.2 µM
[3]
  TGI: > 100 µM
[4]
  TGI: > 75.3 µM
[5]
  TGI: 56.3 µM
[6]
  TGI: > 100 µM
[7]
  TGI: > 68.2 µM
[8]
  TGI: 37.7 µM
[9]
  TGI: > 100 µM
[10]
  TGI: 16.2 µM
[11]
  TGI: > 100 µM
[12]
  TGI: > 100 µM
[13]
  TGI: > 78.2 µM
[14]
  TGI: > 100 µM
[15]
  TGI: 56.8 µM
[16]
  TGI: 85.2 µM
[17]
  TGI: 38.2 µM
[18]
  TGI: 66.5 µM
[19]
  TGI: 32.5 µM
[20]
  TGI: 69.8 µM
[21]
  TGI: > 100 µM
[22]
  TGI: > 100 µM
[23]
  TGI: > 88 µM
[24]
  TGI: 54.1 µM
[25]
  TGI: 36.6 µM
[26]
  TGI: 12.3 µM
[27]
  TGI: > 43.5 µM
[28]
  TGI: > 100 µM
[29]
  TGI: > 84.2 µM
[30]
  TGI: > 100 µM
[31]
  TGI: > 100 µM
[32]
  TGI: 31.6 µM
[33]
  TGI: 27.8 µM
[34]
  TGI: 61.1 µM
[35]
  TGI: > 75.9 µM
[36]
  TGI: > 76.8 µM
[37]
  TGI: 49.9 µM
[38]
  TGI: 31.8 µM
[39]
  TGI: 85 µM
[40]
  TGI: > 100 µM
[41]
  TGI: > 100 µM
[42]
  TGI: 76.8 µM
[43]
  TGI: 52.6 µM
[44]
  TGI: 41.6 µM
[45]
  TGI: > 100 µM
[46]
  TGI: 37.2 µM
[47]
  TGI: > 70.4 µM
[48]
  TGI: > 86.7 µM
[49]
  TGI: > 100 µM
[50]
  TGI: 34.8 µM
[51]
  TGI: 44.4 µM
[52]
  TGI: > 72.6 µM
[53]
  TGI: > 50.6 µM
[54]
  TGI: > 65.6 µM
[55]
  TGI: > 100 µM
[56]
  TGI: > 63.3 µM
[57]
  TGI: 97.6 µM
[58]
  TGI: > 81.5 µM
[59]
  TGI: 26.2 µM

## Cc1ccc(NC(=O)CC(=O)N2N=C(N(C)c3ccccc3)CC2c2ccccc2)cc1 (configuration not stated)
[1]
  TGI: > 100 µM
[2]
  TGI: > 100 µM
[3]
  TGI: > 100 µM
[4]
  TGI: > 100 µM
[5]
  TGI: > 100 µM
[6]
  TGI: > 100 µM
[7]
  TGI: > 100 µM
[8]
  TGI: > 100 µM
[9]
  TGI: > 100 µM
[10]
  TGI: > 100 µM
[11]
  TGI: > 100 µM
[12]
  TGI: 77.9 µM
[13]
  TGI: > 100 µM
[14]
  TGI: > 100 µM
[15]
  TGI: > 100 µM
[16]
  TGI: > 100 µM
[17]
  TGI: > 100 µM
[18]
  TGI: > 100 µM
[19]
  TGI: > 100 µM
[20]
  TGI: > 100 µM
[21]
  TGI: > 100 µM
[22]
  TGI: > 100 µM
[23]
  TGI: > 100 µM
[24]
  TGI: > 100 µM
[25]
  TGI: > 100 µM
[26]
  TGI: > 100 µM
[27]
  TGI: > 100 µM
[28]
  TGI: > 100 µM
[29]
  TGI: > 100 µM
[30]
  TGI: > 100 µM
[31]
  TGI: > 100 µM
[32]
  TGI: > 100 µM
[33]
  TGI: > 100 µM
[34]
  TGI: > 100 µM
[35]
  TGI: > 100 µM
[36]
  TGI: > 100 µM
[37]
  TGI: > 100 µM
[38]
  TGI: > 100 µM
[39]
  TGI: > 100 µM
[40]
  TGI: > 100 µM
[41]
  TGI: > 100 µM
[42]
  TGI: > 100 µM
[43]
  TGI: > 100 µM
[44]
  TGI: > 100 µM
[45]
  TGI: > 100 µM
[46]
  TGI: > 100 µM
[47]
  TGI: > 100 µM
[48]
  TGI: > 100 µM
[49]
  TGI: > 100 µM
[50]
  TGI: > 100 µM
[51]
  TGI: > 100 µM
[52]
  TGI: > 100 µM
[53]
  TGI: > 100 µM
[54]
  TGI: > 100 µM
[55]
  TGI: > 100 µM
[56]
  TGI: > 100 µM
[57]
  TGI: > 100 µM
[58]
  TGI: > 100 µM
[59]
  TGI: > 100 µM

From PubChem BioAssay (NCI)
